Results on two molecules are retold here after patent US7235256B2, “Method of preventing parturient hypocalcemia in animals and compositions used therein” (RJ Innovation, priority 1999, dated 2007).

Assay [1] has as its system non-lactating (dry) cows. Description: EDTA-infusion test for resistance to hypocalcemia. The conditions noted are these: 8 EDTA-tests at 10 days intervals, normal = ionised blood calcium above 1 mmol/l. In kind it is in vivo, cow. The text has this: To investigate the induction of hypocalcemia by intravenous infusion of EDTA in cows, 6 non-lactating (dry) cows were used in this study. Three of these cows were untreated (cow Nos. 168, 169 and 170) and the other three cows (cow Nos. 172, 175 and 176) had been subjected to a pre-treatment consisting of daily doses of anionic salts (Wang and Beede, 1992). This pre-treatment is known to be effective in preventing milk fever. The latter cows were rumen fistulated to facilitate precise daily dosages of the anionic salts.
All cows were tested for resistance to hypocalcemia by the EDTA-infusion technique. A total of 8 EDTA-tests were performed per cow according to the standardised method of Mellau et al. (1998), at 10 days intervals. With the standardised test, infusion of EDTA was performed until the cow went down involuntarily, due to muscle weakness caused by the induced hypocalcemia. The time taken from this point and until the cow regained normal blood calcium concentration, which is defined as an ionised blood calcium value above 1 mmol/l, was recorded. This time is considered to represent the cows' calcium mobilisation rate and therefore also the cows' ability to resist hypocalcemia. The infusion periods varied between individual cows, but were typically in the range of 2–4 hours. […]

The test system of assay [2] is dairy cows. The assay can be described thus: Repeated oral zinc oxide administration, serum calcium response. The conditions noted are these: lactating cows. The assay is classed as in vivo, cow. How it is done: Six dairy cows were used in this study: Two lactating cows and two dry cows were treated with zinc oxide by mouth at 120 mg/kg body weight, whereas two lactating cows served as untreated controls. Four doses of zinc oxide were given to the treated cows at one-week intervals. Venous blood samples were taken and serum stored at −37° C. for later total calcium determinations. For this purpose blood samples were taken daily from all six cows one hour after morning feeding. Extra samples were taken 5, 11, 23 and 35 hours after zinc oxide administration.

Where [3] appears, read: zinc oxide by mouth 120 mg/kg body weight.

Molecules are shown by their SMILES.

For the molecule `O=C(O)CN(CCN(CC(=O)O)CC(=O)O)CC(=O)O` [EDTA, ethylenediaminetetraacetic acid], the “time to regain normal blood calcium concentration (recovery time) after EDTA infusion” value in assay [1] is “greatly improved”.

On to `[O]=[Zn]` [zinc oxide], for which, in assay [2] (four doses at one-week intervals), the “change of calcium balance response with number of doses” value was “less and less affected”. For the same molecule, in assay [2] (setting [3]), the “minimum serum calcium concentration” value was 1.4 to 1.6 mmol/L and the “time of minimum serum calcium after administration” value was “about 24 hours”.
